The record followed here is paper PMC4033646 (ACS Chemical Biology, 2014).

The target of the experiment is (α4)2(β2)3 nAChR (A2B3, high affinity) (Rattus norvegicus, UniProt P09483+P12390, P09483:H144V/P09483:Q152F/P09483:T154L). Kind of experiment: two-electrode voltage clamp, Xenopus oocytes, agonist dose-response. Type of experiment: cell-based. The note with it: -60 mV, ND96 Ca2+ free, pH 7.5.

SMILES strings stand for the structures.

(α4)2(β2)3 nAChR (A2B3, high affinity), sequence (P12390 25-500): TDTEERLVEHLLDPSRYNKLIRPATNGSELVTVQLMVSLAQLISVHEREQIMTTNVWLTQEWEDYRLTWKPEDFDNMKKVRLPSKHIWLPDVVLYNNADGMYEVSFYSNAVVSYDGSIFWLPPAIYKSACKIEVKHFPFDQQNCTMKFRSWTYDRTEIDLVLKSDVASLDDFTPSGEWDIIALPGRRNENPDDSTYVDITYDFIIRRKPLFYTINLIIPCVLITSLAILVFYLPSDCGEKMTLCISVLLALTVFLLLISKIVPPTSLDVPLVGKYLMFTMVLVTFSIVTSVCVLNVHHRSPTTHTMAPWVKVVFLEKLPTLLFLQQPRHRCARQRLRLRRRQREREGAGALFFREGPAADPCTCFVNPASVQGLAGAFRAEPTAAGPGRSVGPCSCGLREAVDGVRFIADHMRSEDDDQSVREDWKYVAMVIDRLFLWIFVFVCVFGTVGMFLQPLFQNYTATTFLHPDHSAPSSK
(α4)2(β2)3 nAChR (A2B3, high affinity), sequence (P09483 31-630 H144V/Q152F/T154L): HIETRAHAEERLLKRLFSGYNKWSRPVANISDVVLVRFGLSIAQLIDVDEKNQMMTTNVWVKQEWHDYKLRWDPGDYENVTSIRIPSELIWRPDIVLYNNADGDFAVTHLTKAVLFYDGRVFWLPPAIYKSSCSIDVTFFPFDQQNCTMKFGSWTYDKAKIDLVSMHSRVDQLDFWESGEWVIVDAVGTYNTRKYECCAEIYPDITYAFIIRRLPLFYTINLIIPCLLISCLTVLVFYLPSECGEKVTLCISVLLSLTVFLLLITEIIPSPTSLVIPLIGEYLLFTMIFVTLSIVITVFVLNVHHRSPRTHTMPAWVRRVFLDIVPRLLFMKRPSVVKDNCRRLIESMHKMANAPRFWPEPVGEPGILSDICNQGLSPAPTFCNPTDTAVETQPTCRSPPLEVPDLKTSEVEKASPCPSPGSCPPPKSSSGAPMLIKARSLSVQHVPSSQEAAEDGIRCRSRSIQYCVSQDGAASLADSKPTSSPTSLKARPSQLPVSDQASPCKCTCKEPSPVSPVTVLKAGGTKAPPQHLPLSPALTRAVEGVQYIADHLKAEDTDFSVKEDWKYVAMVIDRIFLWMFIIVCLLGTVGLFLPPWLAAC

For `OCCCCC#Cc1cncc(OC[C@@H]2CCN2)c1` [sazetidine-A], the response was half-maximal at 4.8 ± 0.3 nM (EC50).
